Laboratory results as given in US7345035B2, “Treatment of osteoporosis and autoimmune disease with astrogorgiadiol” (University of Delaware, priority 2003, dated 2008).

Columns and labels:
osteopontin mRNA = test: Northern blot of osteopontin mRNA in ROS 17/2.8 cells; type: cell-based
Procedure: Changes in levels of mRNA encoding osteopontin induced by astrogorgiadiol were studied by Northern blot. Northern blot analysis was performed as described in Farach-Carson American Journal of Physiology 265: F705-F711 (1993), modified to include varying concentrations of astrogorgiadiol.
Briefly, […] cells were treated with 1 nM 1, 25 (OH)2vitD3 (BIOMOL Research Laboratories Inc., Plymouth Meeting, Pa.) or 1 nM 1, 25 (OH)2 vitD3 and 3 nM, 30 nM or 300 nM astrogorgiadiol for 0, 3 or 24 hours prior to harvest or with 3 nM, 30 nM or 300 nM astrogorgiadiol. mRNA was extracted using standard techniques. Osteopontin mRNA was detected using a ^32P-labeled osteopontin cDNA probe.

starfish eggs = settings: cited from earlier work

For Cc1ccc(O)cc1CC[C@@H]1[C@H](O)CC[C@]2(C)[C@@H]([C@H](C)CCCC(C)C)CC[C@@H]12 [astrogorgiadiol, Astrogorgiadiol], the “1,25 (OH)2 vitD3-induced osteopontin mRNA level (Northern blot)” value (osteopontin mRNA; 3 nM astrogorgiadiol with 1 nM 1,25 (OH)2 vitD3, ROS 17/2.8 cells) was “decreased 1,25 (OH)2 vitD3-induced osteopontin mRNA to levels approaching control levels”, the “osteopontin mRNA level (Northern blot)” value (osteopontin mRNA; 30 nM astrogorgiadiol with 1 nM 1,25 (OH)2 vitD3, ROS 17/2.8 cells) was “decreased the level of osteopontin mRNA below control levels” and the “osteopontin mRNA level (Northern blot)” value (osteopontin mRNA; 300 nM astrogorgiadiol with 1 nM 1,25 (OH)2 vitD3, ROS 17/2.8 cells) was “decreased the level of osteopontin mRNA below control levels”. The “osteopontin mRNA level (Northern blot), dose dependence” value (osteopontin mRNA; ROS 17/2.8 cells, 3 nM, 30 nM or 300 nM astrogorgiadiol, with 1 nM 1,25 (OH)2 vitD3) was “downregulated osteopontin mRNA in a dose-dependent manner”, the “concentration effective to downregulate osteopontin RNA production” value (osteopontin mRNA; in cells in vitro) was 3 to 300 nM and the “cell division of starfish eggs” value (starfish eggs) was “inhibit cell division of starfish eggs”.
For C=C1/C(=C\C=C2/CCC[C@]3(C)[C@@H]([C@H](C)CCCC(C)(C)O)CC[C@@H]23)C[C@@H](O)C[C@@H]1O [1,25 (OH)2 vitD3, reference compound], the “osteopontin mRNA level (Northern blot)” value (osteopontin mRNA; ROS 17/2.8 cells, 1 nM 1,25 (OH)2 vitD3, 0, 3 or 24 hours prior to harvest) was “increased osteopontin mRNA”.
